The target of the assay is T1, angiotensin II receptor (Rattus norvegicus, UniProt P25095).
T1 sequence (P25095 1-359): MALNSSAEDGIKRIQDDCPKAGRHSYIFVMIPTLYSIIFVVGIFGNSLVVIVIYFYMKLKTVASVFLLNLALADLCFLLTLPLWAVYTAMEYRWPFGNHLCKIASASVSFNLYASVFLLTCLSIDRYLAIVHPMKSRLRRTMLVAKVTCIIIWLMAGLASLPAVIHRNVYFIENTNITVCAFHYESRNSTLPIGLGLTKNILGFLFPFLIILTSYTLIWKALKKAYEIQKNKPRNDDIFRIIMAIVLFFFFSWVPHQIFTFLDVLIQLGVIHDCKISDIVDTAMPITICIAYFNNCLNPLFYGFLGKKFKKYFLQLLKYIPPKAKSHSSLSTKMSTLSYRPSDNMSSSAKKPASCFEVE
The assay can be described thus: Inhibition of binding of angiotensin II to rat smooth muscle cells (125I-Tyr4-angiotensin II). The note with it: 125I-AII; rat aorta-derived smooth muscle cells; room temperature, one hour; read-out: IC50, inhibitory activity to the binding of angiotensin II to its receptor.
In the case of `CCCCc1nc(Cl)c(CO)n1Cc1ccc2nc(-c3ccccc3C(=O)O)ccc2c1`, the IC50 (commonly the concentration needed to halve the response being measured) was 0.92 nM.
The same measure for `CCc1nc2c(C)cc(C)nc2n1Cc1ccc2nc(-c3ccccc3-c3nnn[nH]3)cc(Cl)c2c1` [Example 21, 2-ethyl-5,7-dimethyl-3-{[4-chloro-2-[2-(1H-tetrazol-5-yl)phenyl]quinolin-6-yl]methyl}-3H-imidazo[4,5-b]pyridine]: 7.7 nM; for `CCCCc1nc2cccnc2n1Cc1ccc2nc(-c3ccccc3C(=O)O)ccc2c1` [Example 17]: 11 nM; for `CCc1nc2c(C)cc(C)nc2n1Cc1ccc2nc(-c3ccccc3C(=O)OC)ccc2c1` [Example 12, methyl 2-{6-[(2-ethyl-5,7-dimethyl-3H-imidazo-[4,5-b]pyridin-3-yl)methyl]quinolin-2-yl}benzoate]: 440 nM.
The same measure for `CCc1nc2c(C)cc(C)nc2n1Cc1ccc2nc(-c3ccccc3-c3nnn[nH]3)ccc2c1` [Example 15, 2-ethyl-5,7-dimethyl-3-{[2-[2-(1H-tetrazol-5-yl)phenyl]quinolin-6-yl]methyl}-3H-imidazo[4,5-b]pyridine]: 0.94 nM; for `CCc1nc2c(C)cc(C)nc2n1Cc1ccc2nc(-c3ccccc3C(=O)O)ccc2c1`: 6.4 nM; for `CCCCc1nc(Cl)c(C=O)n1Cc1ccc2nc(-c3ccccc3C(=O)O)ccc2c1`: 50 nM.
The same measure for `CCCCc1nc(Cl)c(CO)n1Cc1ccc2nc(-c3ccccc3-c3nnn[nH]3)ccc2c1` [Example 11, {2-butyl-4-chloro-1-{[2-[2-(1H-tetrazol-5-yl)phenyl]quinolin-6-yl]methyl}-1H-imidazol-5-yl}methanol]: 2.5 nM.

Values taken from US5478832A, “Quinoline compounds” (The Green Cross Corporation, priority 1992, dated 1995).
